Laboratory results published in patent US10918648B2, “Estrogen receptor modulator combinations” (The Regents of the University of California, priority 2016, dated 2021).
pIC50: −log10 of the molar value. Where two headings read alike, the source gives them in different places.

How the values were obtained:
Assay type in all cases: cell-based, human
[1] = tested on: H1975 NSCLC cells; assay: NSCLC cell proliferation in vitro (MTS assay); settings: 72 hours
Protocol: (§1) Cell culture: Human breast and non-small cell lung cancer cells (MCF7, ZR75-1, MDAMB231, A549, H23, H1975, […]) were from ATCC. MCF7-HER2 were a kind gift of Dr. Dennis Slamon (23). Cell lines were routinely maintained in RPMI 1640 or DMEM medium with 10% fetal bovine serum (FBS) (Sigma-Aldrich) and 1% Antibiotic-Antimycotic solution 100× (Mediatech, Herndon, Va.). When indicated, for estrogen-free conditions, media was changed 48 h before experiments to phenol-red free RPMI 1640/DMEM with 1% dextran-coated, charcoal-treated (DCC)-FBS (24,25). Otherwise experiments were performed in phenol-red free RPMI 1640/DMEM medium with 5% DCC-FBS.
(§2) Cell proliferation assays: breast and lung tumor cells (between […]) were plated in 96 well plates using their respective medium with 10% FBS. For experiments using estradiol-17β, cells were rinsed with PBS and incubated with phenol redfree medium with 1% DCC-FBS for 48 hours as described before (24,25). Cells were then treated with different concentrations of SERDs ranging between 0.0001-100 μM. […] Cell counts and viability tests (Trypan blue) were done every 24 hr for 3 days. After 72 hr, proliferation was assessed with the MTS Assay CELLTITER 96® Aqueous Cell Proliferation Assay (Promega) or the Cell Proliferation ELISA, BrdU colorimetric assay (Roche). For the MTS, the absorbance of the formazan product was measured at 490 nanometer using the iMARK microplate reader from BIORAD. The BrdU ELISA assay is based on detection of BrdU incorporated into the genomic DNA of proliferating cells and an anti-BrdU antibody, the reaction product was quantified by measuring the absorbance at 370 nanometers using iMARK microplate reader from BIORAD. Cell numbers were also assessed initially by cell counts to confirm MTS/BrdU data. Experiments were done at least three times to confirm data.

[2] = tested on: H2122 NSCLC cells; assay: NSCLC cell proliferation in vitro (MTS assay); settings: 72 hours
Protocol: as §1, §2

[3] = tested on: A549 NSCLC cells; assay: NSCLC cell proliferation in vitro (MTS assay); settings: 72 hours; for pIC50: MTS assay
[4] = tested on: MCF-7 breast cancer cells; assay: MCF-7 breast cancer cell proliferation (BrdU ELISA) in presence of estradiol-17β; settings: for pIC50: Homo sapiens, MCF7, 72 hrs in the presence of 1 nM estradiol-17β, BrdU ELISA, read-out: IC50 for inhibition of cell proliferation, MCF-7; for inhibition of MCF-7 cell proliferation/survival: 1 μM or 50 μM antiestrogen in the presence of 1 nM estradiol, 1% DCC-FBS, FIG. 2A
Protocol: In experiments to assess potential proliferative effects of novel estrogen receptor ligands, human breast cancer cells were grown in phenol red-free, estrogen-free media with 1% dextran-coated charcoal-treated (DCC)-fetal bovine serum (FBS) for 48 hrs (15,44), then treated with either 1 μM or 50 μM doses of estrogen receptor antagonists in the presence of 1 nM estradiol-17β. Cell counts and viability tests (Trypan blue) were done every 24 hr for 3 days. After 72 hr, proliferation was assessed using the BrdU Cell proliferation ELISA (Roche). Cell numbers were also assessed initially by cell counts to confirm ELISA data. Each antiestrogen was tested at least in three different experiments.
In order to assess the antitumor action of novel estrogen receptor antagonists, we cultured human MCF-7 breast cancer cells with known expression of ERα. Cells were grown in 1% DCC-FBS for 48 hr and then treated with vehicle control or either 1 μM or 50 μM concentrations of antiestrogens JD 101-160 or the pure antiestrogen fulvestrant (FAS), all in the presence of 1 nM estradiol-170. […] Shown in FIG. 2A are results from MCF-7 cells grown in 1% DCC-FBS for 48 hr and then treated with vehicle control, 1 nM estradiol-170 and either 1 μM or 50 μM concentrations of antiestrogens JD 101-160 or the known pure antiestrogen fulvestrant (FAS) in the presence of 1 nM estradiol-170. Cell proliferation is expressed as percentage of that determined in the 1 nM estradiol-170-treated control group.
as §2

[5] = Homo sapiens, NCI-H1975, SERD alone, estrogen-depleted phenol red-free medium with 5% DCC-FBS, read-out: IC50 for inhibition of NSCLC cell proliferation, H1975
[6] = in the presence of 1 μM palbociclib, 5% DCC-FBS, read-out: IC50 of SERD for inhibition of NSCLC cell proliferation, H1975
[7] = Homo sapiens, NCI-H2122, SERD alone, estrogen-depleted phenol red-free medium with 5% DCC-FBS, read-out: IC50 for inhibition of NSCLC cell proliferation, H2122
[8] = in the presence of 1 μM abemaciclib, 5% DCC-FBS, read-out: IC50 of SERD for inhibition of NSCLC cell proliferation, H2122
[9] = in the presence of 1 μM palbociclib, 5% DCC-FBS, read-out: IC50 of SERD for inhibition of NSCLC cell proliferation, H2122
[10] = in the presence of 1 μM abemaciclib, 5% DCC-FBS, read-out: IC50 of SERD for inhibition of NSCLC cell proliferation, A549
[11] = in the presence of 1 μM palbociclib, 5% DCC-FBS, read-out: IC50 of SERD for inhibition of NSCLC cell proliferation, A549
[12] = Homo sapiens, A549, SERD alone, estrogen-depleted phenol red-free medium with 5% DCC-FBS, read-out: IC50 for inhibition of NSCLC cell proliferation, A549

| Structure (SMILES) | pIC50 [1, 5] | pIC50 ([1]; in the presence of 1 μM abemaciclib, 5% DCC-FBS, read-out: IC50 of SERD for inhibition of NSCLC cell proliferation, H1975) | pIC50 [1, 6] | pIC50 [2, 7] | pIC50 [2, 8] | pIC50 [2, 9] | pIC50 [3, 10] | pIC50 [3, 11] | pIC50 [4] | pIC50 [3, 12] | inhibition of MCF-7 cell proliferation/survival [4] | antiproliferative effects compared with fulvestrant ([3]; A549, RPMI 1640 with 10% FBS, 1 μM or 10 μM, FIG. 8A) |
| --- | --- | --- | --- | --- | --- | --- | --- | --- | --- | --- | --- | --- |
| C[C@]12C[C@H](Oc3ccc(N)cc3)[C@@H]3c4ccc(O)cc4CC[C@H]3[C@@H]1CC[C@@H]2O [JD105, (8S,9S,11S,13S,14S,17S)-11-(4-aminophenoxy)-13-methyl-7,8,9,11,12,13,14,15,16,17-decahydro-6H-cyclopenta[a]phenanthrene-3,17-diol] | 5.35 | 5.97 | 5.32 | 5.42 | 5.83 | 5.38 | 6.39 | 5.59 | 5.67 | – | – | – |
| C[C@]12C[C@H](Oc3ccc(N)c(C(F)(F)F)c3)[C@@H]3c4ccc(O)cc4CC[C@H]3[C@@H]1CC[C@@H]2O [JD128, (8S,9S,11S,13S,14S,17S)-11-(4-Amino-3-(trifluoromethyl)phenoxy)-13-methyl-7,8,9,11,12,13,14,15,16,17-decahydro-6H-cyclopenta[a]phenanthrene-3,17-diol] | – | – | 4.91 | 5.88 | 6.64 | 6.02 | 6.18 | 5.87 | 6.96 | 5.96 | significant inhibition | – |
| C[C@]12C[C@H](Oc3ccc(NC(=O)CCCCN4CCCCC4)c(F)c3)[C@@H]3c4ccc(O)cc4CC[C@H]3[C@@H]1CC[C@@H]2O [JD140, N-(4-(((8S,9S,11S,13S,14S,17S)-3,17-Dihydroxy-13-methyl-7,8,9,11,12,13,14,15,16,17-deca-hydro-6H-cyclopenta[a]phenanthren-11-yl)oxy)-2-fluorophenyl)-5-(piperidin-1-yl)pentan-amide] | 5.73 | – | 4.77 | 5.94 | 7.52 | 5.95 | 6.19 | 5.91 | 6.49 | 6.30 | significant inhibition | significant antiproliferative effects |
